The text below walks through data of patent US20170087138A1 (priority 2007, published 2017).

A short description of data set [1]: Solubility of salts in water, pH of the saturated solution and identity of the precipitate. The data set is classed as physicochemical. Conditions: for Resulting pH: pH in the saturated solution of the salt; for Precipitate: whether precipitate isolated after solubility determination is identical to the compound dissolved; for solubility (in words): table 3.
Protocol: If the acid is a liquid it was added neat otherwise it was dissolved in the given solvent prior to addition. After mixing and precipitation stirring was continued overnight and the precipitate collected by filtration. Before drying in vacuum at 30° C. a small reference sample was withdrawn and dried at room temperature without vacuum. This procedure was included in order to test for solvates.
Data set [2] addresses T1, human-homomeric 5-HT3A receptors (Homo sapiens, UniProt P46098).
T1 sequence (P46098 24-478): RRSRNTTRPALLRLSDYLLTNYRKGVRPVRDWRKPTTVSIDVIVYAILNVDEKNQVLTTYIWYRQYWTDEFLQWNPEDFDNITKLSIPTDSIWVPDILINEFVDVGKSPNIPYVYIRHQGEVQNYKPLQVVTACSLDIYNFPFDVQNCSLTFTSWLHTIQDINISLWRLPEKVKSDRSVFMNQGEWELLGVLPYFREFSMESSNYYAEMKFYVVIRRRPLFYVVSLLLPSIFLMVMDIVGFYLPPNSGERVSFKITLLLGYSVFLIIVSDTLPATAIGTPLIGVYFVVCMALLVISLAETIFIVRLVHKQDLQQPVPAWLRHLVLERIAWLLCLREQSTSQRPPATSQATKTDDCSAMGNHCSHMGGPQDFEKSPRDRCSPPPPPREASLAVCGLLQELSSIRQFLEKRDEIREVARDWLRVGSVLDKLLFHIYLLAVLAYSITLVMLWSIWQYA
As to the kind of experiment: 5-HT3A receptor antagonism, voltage clamp in Xenopus oocytes. Type of data set: cell-based. The following applies: higher concentrations (100-100000 nM).
Protocol: The experiments were carried out as follows. […] Oocytes avoid of the follicle layer were selected and incubated for 24 hours in Modified Barth's Saline buffer [88 mM NaCl, 1 mM KCl, 15 mM HEPES, 2.4 mM NaHCO3, 0.41 mM CaCl2, 0.82 mM MgSO4, 0.3 mM Ca(NO3)2] supplemented with 2 mM sodium pyruvate, 0.1 U/l penicillin and 0.1 μg/l streptomycin. Stage IV-IV oocytes were identified and injected with 12-48 nl of nuclease free water containing 14-50 pg of cRNA coding for human 5-HT3A receptors and incubated at 18° C. until they were used for electrophysiological recordings (1-7 days after injection). […] Cells were impaled with agar plugged 0.5-1 MΩ electrodes containing 3 M KCl and voltage clamped at −90 mV by a GeneClamp 500B amplifier. The oocytes were continuously perfused with Ringer buffer and the drugs were applied in the perfusate.

The test system of data set [3] is extracellular levels of acetylcholine in the prefrontal cortex and ventral hippocampus. As to the kind of experiment: Microdialysis: extracellular acetylcholine levels in freely-moving rats. The following applies: rat, FIGS. 10A and 10B. The data set is classed as in vivo. How it is done:
The experiment was designed to evaluate the effects of compounds of the present invention on extracellular levels of acetylcholine in the prefrontal cortex and ventral hippocampus of freely-moving rats.
Male Sprague-Dawley rats, initially weighing 275-300 g, were used. The animals were housed under a 12-hr light/dark cycle under controlled conditions for regular in-door temperature (21±2° C.) and humidity (55±5%) with food and tap water available ad libitum.
Rats were anaesthetised with hypnorm/dormicum (2 ml/kg) and intracerebral guide cannulas (CMA/12) were stereotaxically implanted into the hippocampus, aiming to position the dialysis probe tip in the ventral hippocampus (co-ordinates: 5.6 mm posterior to bregma, lateral −5.0 mm, 7.0 mm ventral to dura or in the frontal cortex (co-ordinates: 3.2 mm anterior to bregma; lateral, 0.8 mm; 4.0 mm ventral to dura). Anchor screws and acrylic cement were used for fixation of the guide cannulas. The body temperature of the animals was monitored by rectal probe and maintained at 37° C. The rats were allowed to recover from surgery for 2 days, housed singly in cages. On the day of the experiment a microdialysis probe (CMA/12, 0.5 mm diameter, 3 mm length) was inserted through the guide cannula.
The probes were connected via a dual channel swivel to a microinjection pump. […]

The next data set concerns C57/B6 mice. As to the kind of experiment: Formalin model of neuropathic pain. Conditions: in words. The data set is classed as in vivo. Here is the method:
The irritation caused by the formalin injection elicits a characteristic biphasic behavioural response, as quantified by the amount of time spent licking the injured paw. The first phase (˜0-10 minutes) represents direct chemical irritation and nociception, whereas the second (˜20-30 minutes) is thought to represent pain of neuropathic origin. The two phases are separated by a quiescent period in which behaviour returns to normal. Measuring the amount of time spent licking the injured paw in the two phases assesses the effectiveness of test compounds to reduce the painful stimuli. Eight C57/B6 mice (ca. 25 g) were tested per group. Table 4 below show the amount of time spent licking the injured paw in the two phases, i.e. 0-5 minutes and 20-30 minutes post formalin injection. The amount of compound administered is calculated as the free base.

Another data set has as its system healthy volunteers. The experiment in a line: Multiple dose clinical trial, vital signs including blood pressure. Type of data set: in vivo, human. Conditions: up to 30 mg/day. The source says: 49 subjects received active compound and 21 subjects received placebo.

Counter-ions that a name gives are not always drawn.

On to `Cc1ccc(Sc2ccccc2C2CCNCC2)cc1` [Phosphoric acid 1:1], for which the “Resulting pH” value in data set [1] stood at 2.0. In the case of `Cc1ccc(Sc2ccccc2C2CCNCC2)cc1` [Oxalic acid 1:1], the Precipitate entry in data set [1] is “=Start”. As for `Cc1ccc(Sc2ccccc2C2CCNCC2)cc1` [Glutamic acid 1:1], the “solubility (in words)” value in data set [1] is “exceptionally high solubility”. In the case of `Cc1ccc(Sc2ccccc2C2CCNCC2)cc1` (racemic), in data set [1], the “solubility (in words)” value is recorded as “exceptionally high solubility” and the Precipitate result is “=start (after”. Turning to `Cc1ccc(Sc2ccccc2C2CCNCC2)cc1` [Adipicacid, 1,6-hexanedioic acid 2:1], the Precipitate entry in data set [1] is reported as “=start”. Turning to `Cc1ccc(Sc2ccccc2C2CCNCC2)cc1` [HBr, 4-(2-(4-tolylsulfanyl)phenyl)-piperidin hydrobromide], in data set [1] (hydrobromide), the “Resulting pH” value amounted to 7.0 and the Precipitate result is reported as “=Start”. In the case of `Cc1ccc(Sc2ccccc2C2CCNCC2)cc1` [Sebacoinic acid, 1,8-octanedioic acid 2:1], in data set [1], the Precipitate result is reported as “=Start”. `Cc1ccc(Sc2ccccc2C2CCNCC2)cc1` [Compound I, 4-[2-(4-methylphenylsulfanyl)-phenyl]piperidine]: the “maximal current, of the maximal current elicited by 5-HT itself” value in data set [2] is 70-80%. For the same molecule, in data set [3], the “extra cellular level of acetylcholine in the prefrontal cortex and the hippocampus” value is reported as “increase”. In the data set with C57/B6 mice, the “effect in the first phase (direct chemical irritation and nociception)” value is listed as “little effect”; the “time spent licking paws in the second phase” value is “clear and dose dependent decrease”. Further, the blood pressure result in the data set on healthy volunteers is “only at the highest dose were there signs of elevated blood pressure”. In the case of `Cc1ccc(Sc2ccccc2C2CCNCC2)cc1` [Citric acid 2:1], the Precipitate entry in data set [1] is “=Start”. Still for that read-out and setting: in the case of `Cc1ccc(Sc2ccccc2C2CCNCC2)cc1` [D-tartaric acid, D-2,3-dihydroxy butanedioic acid 1:1] it was “Hydrate”; in that of `Cc1ccc(Sc2ccccc2C2CCNCC2)cc1` [Fumaric acid 1:1], “=start”. As for `Cc1ccc(Sc2ccccc2C2CCNCC2)cc1` [Glutaric acid, 1,5-pentanedioic acid 1:1], in data set [1], the “solubility (in words)” value was “exceptionally high solubility” and the Precipitate entry is “=start”. For the molecule `Cc1ccc(Sc2ccccc2C2CCNCC2)cc1` [HCl], the Precipitate result in data set [1] is “=Start”.
